Data: article PMC3955700 (Bioorganic & medicinal chemistry letters, 2013)

System: brain / choroid plexus uptake
Test: PET imaging in cynomolgus monkey
Type: in vivo

SMILES: Cl.O=C(Cc1ccc(OC2CCNCC2)cc1OCCF)N1CCC(N2C(=O)CCc3ccccc32)CC1 [Compound 1, 1-(1-(2-(2-(2-fluoroethoxy)-4-(piperidin-4-yloxy)phenyl)acetyl)piperidin-4-yl)-3,4-dihydroquinolin-2(1H)-one]
- effect of blocking on [18F]1 uptake (5 mg/kg of 1 given 30 min prior to [18F]1): increase of overall brain activity, primarily in the region of the choroid plexus
- effect of chase on [18F]1 choroid plexus uptake (5 mg/kg of 1 given 45 min after [18F]1): uptake within the choroid plexus was completely removed
